Here are results for 20 compounds from US9249145B2, “Heterocyclic derivatives of pyrazol-4-yl-pyrrolo[2,3-d]pyrimidines as janus kinase inhibitors” (Incyte Holdings Corporation, priority 2009, dated 2016).

The target of experiment [1] is T1, human JAK1 (a.a. 837-1142) (Homo sapiens, UniProt P23458).
T1 construct: The catalytic domains of human JAK1 (a.a. 837-1142); His tag (N); made in house; host or cells: insect cells (baculovirus)
Kind of experiment: In vitro JAK kinase assay (HTRF, phosphorylation of biotinylated peptide), JAK1. It counts as biochemical. As to conditions: 1 mM ATP; Examples 12-91; read-out: JAK1 IC50 (nM) @ 1 mM ATP. A digest of the protocol: (§1)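 His-tagged catalytic domains expressed in baculovirus/insect cells; biotinylated peptide (500 nM) phosphorylation in 50 mM Tris pH 7.8, 100 mM NaCl, 5 mM DTT, 0.01% BSA, 1 h room temperature. ATP at Km (JAK1 90 μM, JAK2 30 μM) or 1 mM. EDTA stop, Eu-Py20/SA-APC HTRF read; IC50.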
A general note: TR-FRET usually uses a lanthanide donor and a delayed reading to cut background.

Experiment [2] concerns the target T2, Jak2 (a.a. 828-1132) (Homo sapiens, UniProt O60674).
T2 construct: Jak2 (a.a. 828-1132); His tag (N); made in house; host or cells: insect cells (baculovirus)
The experiment can be described thus: In vitro JAK kinase assay (HTRF, phosphorylation of biotinylated peptide), JAK2. It counts as biochemical. Particulars: 1 mM ATP; Examples 12-91; read-out: JAK2 IC50 (nM) @ 1 mM ATP. Put shortly:
as §1

As a reminder, the IC50 is the midpoint of a concentration-inhibition curve.

Molecules are shown by their SMILES. Structures can show the parent of a compound that is named as a salt.

T1 sequence (P23458 849-1154): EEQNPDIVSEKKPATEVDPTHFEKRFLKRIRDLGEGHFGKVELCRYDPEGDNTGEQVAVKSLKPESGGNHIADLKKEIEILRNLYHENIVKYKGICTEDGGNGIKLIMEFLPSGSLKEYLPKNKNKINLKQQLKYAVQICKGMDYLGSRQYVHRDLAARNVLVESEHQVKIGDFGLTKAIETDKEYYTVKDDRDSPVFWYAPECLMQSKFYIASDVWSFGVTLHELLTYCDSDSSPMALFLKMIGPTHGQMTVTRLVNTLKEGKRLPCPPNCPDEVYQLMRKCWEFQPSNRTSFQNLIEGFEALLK
T2 sequence (O60674 828-1132): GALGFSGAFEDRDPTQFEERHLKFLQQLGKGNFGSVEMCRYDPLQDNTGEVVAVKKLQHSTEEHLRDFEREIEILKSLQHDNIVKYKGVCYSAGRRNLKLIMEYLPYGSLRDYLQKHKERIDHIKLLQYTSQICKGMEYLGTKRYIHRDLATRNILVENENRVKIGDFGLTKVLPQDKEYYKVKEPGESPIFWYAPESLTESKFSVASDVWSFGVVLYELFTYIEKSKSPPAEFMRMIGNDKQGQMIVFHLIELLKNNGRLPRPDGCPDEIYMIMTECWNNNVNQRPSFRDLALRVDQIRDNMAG

As to `N#CCC(CN1CCN(S(=O)(=O)c2cccs2)CC1)n1cc(-c2ncnc3[nH]ccc23)cn1` (stereo not shown) [Example 67, 3-(4-(7H-pyrrolo[2,3-d]pyrimidin-4-yl)-1H-pyrazol-1-yl)-4-(4-(thiophen-2-ylsulfonyl)piperazin-1-yl)butanenitrile], the IC50 in experiment [1] and in experiment [2] was below 10 nM each time.
Turning to `N#CCC(CN1CCN(S(=O)(=O)c2ccc(Cl)s2)CC1)n1cc(-c2ncnc3[nH]ccc23)cn1` (stereo not shown) [Example 68, 3-(4-(7H-pyrrolo[2,3-d]pyrimidin-4-yl)-1H-pyrazol-1-yl)-4-(4-(5-chlorothiophen-2-ylsulfonyl)piperazin-1-yl)butanenitrile], the IC50 in experiment [1] and in experiment [2] was below 10 nM each time.
On to `N#CCC(CN1CCN(C(=O)Nc2c(F)cccc2F)CC1)n1cc(-c2ncnc3[nH]ccc23)cn1` (stereo not shown) [Example 69, 4-(2-(4-(7H-pyrrolo[2,3-d]pyrimidin-4-yl)-1H-pyrazol-1-yl)-3-cyanopropyl)-N-(2,6-difluorophenyl)piperazine-1-carboxamide], for which the IC50 in experiment [1] was below 10 nM; in experiment [2], 10 to 50 nM.
In the same order, the values of `N#CCC(CN1CCN(C(=O)Nc2c(Cl)cccc2Cl)CC1)n1cc(-c2ncnc3[nH]ccc23)cn1` (stereo not shown) [Example 70, 4-(2-(4-(7H-pyrrolo[2,3-d]pyrimidin-4-yl)-1H-pyrazol-1-yl)-3-cyanopropyl)-N-(2,6-dichlorophenyl)piperazine-1-carboxamide] are 10 to 50 nM and 50 to 100 nM.
In the case of `Cc1cccc(Cl)c1NC(=O)N1CCN(CC(CC#N)n2cc(-c3ncnc4[nH]ccc34)cn2)CC1` (stereo not shown) [Example 71, 4-(2-(4-(7H-pyrrolo[2,3-d]pyrimidin-4-yl)-1H-pyrazol-1-yl)-3-cyanopropyl)-N-(2-chloro-6-methylphenyl)piperazine-1-carboxamide], the IC50 in experiment [1] and in experiment [2] was 10 to 50 nM each time.
For `N#CCC(CN1CCN(C(=O)Nc2ccc(F)cc2F)CC1)n1cc(-c2ncnc3[nH]ccc23)cn1` (stereo not shown) [Example 72, 4-(2-(4-(7H-pyrrolo[2,3-d]pyrimidin-4-yl)-1H-pyrazol-1-yl)-3-cyanopropyl)-N-(2,4-difluorophenyl)piperazine-1-carboxamide], the IC50 in experiment [1] was in the range of 10 to 50 nM; in experiment [2], 50 to 100 nM.
The corresponding values for `N#CCC(CN1CCN(C(=O)Nc2cccc(C(F)(F)F)c2F)CC1)n1cc(-c2ncnc3[nH]ccc23)cn1` (stereo not shown) [Example 73, 4-(2-(4-(7H-pyrrolo[2,3-d]pyrimidin-4-yl)-1H-pyrazol-1-yl)-3-cyanopropyl)-N-(2-fluoro-3-(trifluoromethyl)phenyl)piperazine-1-carboxamide] are 10 to 50 nM and above 100 nM.
In the same order, the values of `N#CCC(CN1CCN(C(=O)Nc2ccccc2OC(F)F)CC1)n1cc(-c2ncnc3[nH]ccc23)cn1` (stereo not shown) [Example 74, 4-(2-(4-(7H-pyrrolo[2,3-d]pyrimidin-4-yl)-1H-pyrazol-1-yl)-3-cyanopropyl)-N-(2-(difluoromethoxy)phenyl)piperazine-1-carboxamide] are 10 to 50 nM and 50 to 100 nM.
In the same order, the values of `N#CCC(CN1CCN(C(=O)Nc2ccccc2OC(F)(F)F)CC1)n1cc(-c2ncnc3[nH]ccc23)cn1` (stereo not shown) [Example 75] are 10 to 50 nM and 50 to 100 nM.
Consider `N#CCC(CN1CCN(C(=O)Nc2ccccc2C(F)(F)F)CC1)n1cc(-c2ncnc3[nH]ccc23)cn1` (stereo not shown) [Example 76, 4-(2-(4-(7H-pyrrolo[2,3-d]pyrimidin-4-yl)-1H-pyrazol-1-yl)-3-cyanopropyl)-N-(2-(trifluoromethyl)phenyl)piperazine-1-carboxamide], for which the half-maximal inhibitory concentration (IC50) in experiment [1] is 10 to 50 nM; in experiment [2] it was above 100 nM.
The corresponding values for `N#CCC(CN1CCN(C(=O)c2ccc(C(F)(F)F)cc2F)CC1)n1ccc(-c2ncnc3[nH]ccc23)c1` (stereo not shown) [Example 78, 3-(3-(7H-pyrrolo[2,3-d]pyrimidin-4-yl)-1H-pyrrol-1-yl)-4-(4-(2-fluoro-4-(trifluoromethyl)benzoyl)piperazin-1-yl)butanenitrile] are below 10 nM and 10 to 50 nM.
The corresponding values for `N#CCC(CN1CCN(C(=O)c2c(F)cc(C#N)cc2F)CC1)n1ccc(-c2ncnc3[nH]ccc23)c1` (stereo not shown) [Example 79, 4-(4-(2-(3-(7H-pyrrolo[2,3-d]pyrimidin-4-yl)-1H-pyrrol-1-yl)-3-cyanopropyl)piperazine-1-carbonyl)-3,5-difluorobenzonitrile trifluoroacetate salt] are below 10 nM and 50 to 100 nM.
In the same order, the values of `N#CCC(CN1CCN(C(=O)c2ncc(F)cc2F)CC1)n1ccc(-c2ncnc3[nH]ccc23)c1` (stereo not shown) [Example 80, 3-(3-(7H-pyrrolo[2,3-d]pyrimidin-4-yl)-1H-pyrrol-1-yl)-4-(4-(3,5-difluoropicolinoyl)piperazin-1-yl)butanenitrile] are below 10 nM and 10 to 50 nM.
As for `N#CCC(CN1CCN(C(=O)c2cc(F)cc(F)c2)CC1)n1ccc(-c2ncnc3[nH]ccc23)c1` (stereo not shown) [Example 81, 3-(3-(7H-pyrrolo[2,3-d]pyrimidin-4-yl)-1H-pyrrol-1-yl)-4-(4-(3,5-difluorobenzoyl)piperazin-1-yl)butanenitrile], the concentration for half-maximal inhibition (IC50) in experiment [1] is below 10 nM; in experiment [2], 50 to 100 nM.
The corresponding values for `COc1ccc(C(=O)N2CCN(CC(CC#N)n3ccc(-c4ncnc5[nH]ccc45)c3)CC2)cc1F` (stereo not shown) [Example 82, 3-(3-(7H-pyrrolo[2,3-d]pyrimidin-4-yl)-1H-pyrrol-1-yl)-4-(4-(3-fluoro-4-methoxybenzoyl)piperazin-1-yl)butanenitrile] are below 10 nM and 10 to 50 nM.
In the same order, the values of `N#CCC(CN1CCN(C(=O)c2ccc(F)cn2)CC1)n1ccc(-c2ncnc3[nH]ccc23)c1` (stereo not shown) [Example 83, 3-(3-(7H-pyrrolo[2,3-d]pyrimidin-4-yl)-1H-pyrrol-1-yl)-4-(4-(5-fluoropicolinoyl)piperazin-1-yl)butanenitrile] are below 10 nM and 10 to 50 nM.
Consider `N#CCC(CN1CCN(C(=O)c2ncc(Cl)cc2F)CC1)n1ccc(-c2ncnc3[nH]ccc23)c1` (stereo not shown) [Example 84, 3-(3-(7H-pyrrolo[2,3-d]pyrimidin-4-yl)-1H-pyrrol-1-yl)-4-(4-(5-chloro-3-fluoropicolinoyl)piperazin-1-yl)butanenitrile], for which the half-inhibitory concentration (IC50) in experiment [1] and in experiment [2] was 10 to 50 nM each time.
Regarding `N#CCC(CN1CCN(C(=O)c2ccc(F)c(OC(F)(F)F)c2)CC1)n1ccc(-c2ncnc3[nH]ccc23)c1` (stereo not shown) [Example 85, 3-(3-(7H-pyrrolo[2,3-d]pyrimidin-4-yl)-1H-pyrrol-1-yl)-4-(4-(4-fluoro-3-(trifluoromethoxy)benzoyl)piperazin-1-yl)butanenitrile], the 50% inhibitory concentration (IC50) in experiment [1] is 10 to 50 nM; in experiment [2], above 100 nM.
In the same order, the values of `N#CCC(CN1CCN(C(=O)c2cc(F)cc(C#N)c2)CC1)n1ccc(-c2ncnc3[nH]ccc23)c1` (stereo not shown) [Example 86, 3-(4-(2-(3-(7H-pyrrolo[2,3-d]pyrimidin-4-yl)-1H-pyrrol-1-yl)-3-cyanopropyl)piperazine-1-carbonyl)-5-fluorobenzonitrile trifluoroacetate salt] are 10 to 50 nM and above 100 nM.
For the compound `N#CCC(CN1CCN(C(=O)c2ncc(C#N)cc2F)CC1)n1ccc(-c2ncnc3[nH]ccc23)c1` (stereo not shown) [Example 87, 6-(4-(2-(3-(7H-pyrrolo[2,3-d]pyrimidin-4-yl)-1H-pyrrol-1-yl)-3-cyanopropyl)piperazine-1-carbonyl)-5-fluoronicotinonitrile], the concentration for half-maximal inhibition (IC50) in experiment [1] was 10 to 50 nM; in experiment [2] it was above 100 nM.
